Laboratory results from ChEMBL document CHEMBL1201862, “PubChem BioAssay data set” (2004).
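Results reflect a 48-hour exposure of cells in 96-well plates to compound at five concentrations. Abbreviation: GI50, concentration required for 50% inhibition of growth.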 Calls of active or inactive are those of the source. No stated cut-off is given here; in the data, active = GI50 up to about 1.1 µM and inactive = higher. Non-standard residues stand in square brackets, D forms with d. Residues, ends and D or L forms follow the SMILES beside them. *: point of attachment. Phe(4-NO2) = N[CH](Cc1ccc([N+](=O)[O-])cc1)C(=O)O; Boc = CC(C)(C)OC(=O)*

How the values were obtained:
Assay in all cases: growth of human tumour cells (NCI), 48 h
SR = tested on: SR
SF-268 = tested on: SF-268
HOP-92 = tested on: HOP-92
SNB-75 = tested on: SNB-75
Malme-3M = tested on: Malme-3M
DU-145 = tested on: DU-145
MDA-MB-435 = tested on: MDA-MB-435
COLO 205 = tested on: COLO 205
PC-3 = tested on: PC-3
LOX IMVI = tested on: LOX IMVI
CCRF-CEM = tested on: CCRF-CEM
TK-10 = tested on: TK-10
UO-31 = tested on: UO-31
HOP-62 = tested on: HOP-62
U-251 = tested on: U-251
KM12 = tested on: KM12
786-0 = tested on: 786-0
SK-MEL-2 = tested on: SK-MEL-2
K562 = tested on: K562
OVCAR-5 = tested on: OVCAR-5

Fc1c(F)c(C(F)(F)F)c(F)c(F)c1N/N=C\c1c[nH]c2ccccc12
GI50 (SR): 2.75 µM (inactive)
GI50 (SF-268): 5.24 µM (inactive)
GI50 (HOP-92): 3.61 µM (inactive)
GI50 (SNB-75): 1.27 µM (inactive)
GI50 (Malme-3M): 3.92 µM (inactive)
GI50 (DU-145): 3.64 µM (inactive)
GI50 (MDA-MB-435): 1.51 µM (inactive)
GI50 (COLO 205): 1.28 µM (inactive)
GI50 (PC-3): 2.13 µM (inactive)
GI50 (LOX IMVI): 3.3 µM (inactive)
GI50 (CCRF-CEM): 1.23 µM (inactive)
GI50 (TK-10): 4.48 µM (inactive)
GI50 (UO-31): 1.16 µM (inactive)
GI50 (HOP-62): 1.55 µM (inactive)
GI50 (U-251): 3.23 µM (inactive)
GI50 (KM12): 1.94 µM (inactive)
GI50 (786-0): 3.44 µM (inactive)
GI50 (SK-MEL-2): 2.78 µM (inactive)
GI50 (K562): 2.87 µM (inactive)
GI50 (OVCAR-5): 3.94 µM (inactive)

C=C1C(=O)OC2CC(C)C3C=CC(=O)C3CC12 (stereo unspecified)
GI50 (SR): 0.824 µM (active)
GI50 (SF-268): 2.55 µM (inactive)
GI50 (HOP-92): 1.88 µM (inactive)
GI50 (SNB-75): 5.51 µM (inactive)
GI50 (Malme-3M): 2.05 µM (inactive)
GI50 (DU-145): 5.41 µM (inactive)
GI50 (MDA-MB-435): 3.31 µM (inactive)
GI50 (COLO 205): 1.52 µM (inactive)
GI50 (PC-3): 2.37 µM (inactive)
GI50 (LOX IMVI): 0.867 µM (active)
GI50 (CCRF-CEM): 0.428 µM (active)
GI50 (TK-10): 3.16 µM (inactive)
GI50 (UO-31): 2.9 µM (inactive)
GI50 (HOP-62): 15.9 µM (inactive)
GI50 (U-251): 6.76 µM (inactive)
GI50 (KM12): 5.64 µM (inactive)
GI50 (786-0): 1.76 µM (inactive)
GI50 (SK-MEL-2): 2.04 µM (inactive)
GI50 (K562): 1.46 µM (inactive)
GI50 (OVCAR-5): 3.29 µM (inactive)

Cc1cccc(NC(=O)O/N=C(\Cl)C(C)C)c1
GI50 (SR): 1.38 µM (inactive)
GI50 (SF-268): 20 µM (inactive)
GI50 (HOP-92): 1.66 µM (inactive)
GI50 (SNB-75): 18.1 µM (inactive)
GI50 (Malme-3M): 2.19 µM (inactive)
GI50 (DU-145): 18.6 µM (inactive)
GI50 (MDA-MB-435): 14.5 µM (inactive)
GI50 (COLO 205): 2.01 µM (inactive)
GI50 (PC-3): 16.7 µM (inactive)
GI50 (LOX IMVI): 1.83 µM (inactive)
GI50 (CCRF-CEM): 0.847 µM (active)
GI50 (TK-10): 14 µM (inactive)
GI50 (UO-31): 16.6 µM (inactive)
GI50 (HOP-62): 19 µM (inactive)
GI50 (U-251): 20.7 µM (inactive)
GI50 (KM12): 19.4 µM (inactive)
GI50 (786-0): 2 µM (inactive)
GI50 (SK-MEL-2): 17.7 µM (inactive)
GI50 (K562): 2.31 µM (inactive)
GI50 (OVCAR-5): 19.4 µM (inactive)

C=C(C(=O)O)[C@@H]1C[C@@H](OC(C)=O)[C@]2(C)CC/C=C(\C)CCC[C@H](C)[C@H](O)[C@@H]1O2
GI50 (SR): 24.3 µM (inactive)
GI50 (SF-268): > 100 µM (inactive)
GI50 (HOP-92): 46 µM (inactive)
GI50 (SNB-75): 74.8 µM (inactive)
GI50 (Malme-3M): 61.7 µM (inactive)
GI50 (DU-145): 83.9 µM (inactive)
GI50 (MDA-MB-435): 24.2 µM (inactive)
GI50 (COLO 205): 33.1 µM (inactive)
GI50 (PC-3): 39.7 µM (inactive)
GI50 (LOX IMVI): 30.3 µM (inactive)
GI50 (CCRF-CEM): 22.4 µM (inactive)
GI50 (TK-10): 57.4 µM (inactive)
GI50 (U-251): > 100 µM (inactive)
GI50 (KM12): 41.9 µM (inactive)
GI50 (786-0): 44.5 µM (inactive)
GI50 (SK-MEL-2): 71.8 µM (inactive)
GI50 (K562): 75.2 µM (inactive)
GI50 (OVCAR-5): > 100 µM (inactive)

CCCCCCc1ccc(C(=O)NO)cc1
GI50 (SR): 9.98 µM (inactive)
GI50 (SF-268): 25.3 µM (inactive)
GI50 (HOP-92): 48 µM (inactive)
GI50 (SNB-75): 42.9 µM (inactive)
GI50 (DU-145): 24.8 µM (inactive)
GI50 (MDA-MB-435): 53.5 µM (inactive)
GI50 (COLO 205): 41.5 µM (inactive)
GI50 (PC-3): 31.8 µM (inactive)
GI50 (LOX IMVI): 17.2 µM (inactive)
GI50 (CCRF-CEM): 6.92 µM (inactive)
GI50 (TK-10): 51.5 µM (inactive)
GI50 (UO-31): 15.7 µM (inactive)
GI50 (HOP-62): 34.2 µM (inactive)
GI50 (U-251): 38.8 µM (inactive)
GI50 (KM12): 44.9 µM (inactive)
GI50 (786-0): 13.7 µM (inactive)
GI50 (SK-MEL-2): 44.9 µM (inactive)
GI50 (K562): 24.5 µM (inactive)
GI50 (OVCAR-5): 75 µM (inactive)

O=C1OI(C#Cc2ccccc2)c2ccccc21
GI50 (SR): 1.46 µM (inactive)
GI50 (SF-268): 2.84 µM (inactive)
GI50 (HOP-92): 1.88 µM (inactive)
GI50 (SNB-75): 3.89 µM (inactive)
GI50 (Malme-3M): 1.53 µM (inactive)
GI50 (DU-145): 7.18 µM (inactive)
GI50 (MDA-MB-435): 3.72 µM (inactive)
GI50 (COLO 205): 3.37 µM (inactive)
GI50 (PC-3): 4.54 µM (inactive)
GI50 (LOX IMVI): 2.74 µM (inactive)
GI50 (CCRF-CEM): 0.355 µM (active)
GI50 (TK-10): 3.29 µM (inactive)
GI50 (UO-31): 4.13 µM (inactive)
GI50 (HOP-62): 6.41 µM (inactive)
GI50 (U-251): 2.62 µM (inactive)
GI50 (KM12): 3.52 µM (inactive)
GI50 (786-0): 3.11 µM (inactive)
GI50 (SK-MEL-2): 11.7 µM (inactive)
GI50 (K562): 2.15 µM (inactive)
GI50 (OVCAR-5): 5.82 µM (inactive)

COC(=O)CCC(NC(=O)OC(C)(C)C)C(=O)NC(Cc1ccc([N+](=O)[O-])cc1)C(=O)NC(CCC(=O)OC)C(=O)OC (stereo unspecified) (Boc-Glu(OMe)-[Phe(4-NO2)]-Glu(OMe)-OMe; configuration not given here)
GI50 (SR): 28.8 µM (inactive)
GI50 (SF-268): > 100 µM (inactive)
GI50 (HOP-92): > 100 µM (inactive)
GI50 (SNB-75): 33.1 µM (inactive)
GI50 (Malme-3M): > 100 µM (inactive)
GI50 (DU-145): > 100 µM (inactive)
GI50 (MDA-MB-435): > 100 µM (inactive)
GI50 (COLO 205): > 100 µM (inactive)
GI50 (PC-3): > 100 µM (inactive)
GI50 (LOX IMVI): 26.6 µM (inactive)
GI50 (CCRF-CEM): 12.3 µM (inactive)
GI50 (TK-10): > 100 µM (inactive)
GI50 (UO-31): > 100 µM (inactive)
GI50 (HOP-62): > 100 µM (inactive)
GI50 (KM12): > 100 µM (inactive)
GI50 (786-0): > 100 µM (inactive)
GI50 (SK-MEL-2): > 100 µM (inactive)
GI50 (K562): 35.4 µM (inactive)
GI50 (OVCAR-5): > 100 µM (inactive)
